Assay results published in paper PMC8636943.

Assays:
[1] = system: G4-Apt (DNA, G4) AGGGACGGGACCGTCTTCCAGACAAGAGTGCAGGGAGGGACGGGA; assay: biolayer interferometry (Octet RED96); conditions: binding buffer (composition not given), 25 °C
[2] = system: anti-VEGF165 aptamer (DNA, aptamer) CCGTCTTCCAGACAAGAGTGCAGGG; assay: biolayer interferometry (Octet RED96); conditions: binding buffer (composition not given), 25 °C
VEGF165 = VEGF165 (human, UniProt P15692-4 27-191); assay: BLI; BLI (Octet RED96), 25 C, 1000 rpm, 200 uL binding buffer (composition not given), VEGF165 6.25-100 nM, BSA blank as reference; conditions: protein: commercial, chain copies: 2
Chain of VEGF165 (P15692 other isoform, or with tags, fused parts or gaps): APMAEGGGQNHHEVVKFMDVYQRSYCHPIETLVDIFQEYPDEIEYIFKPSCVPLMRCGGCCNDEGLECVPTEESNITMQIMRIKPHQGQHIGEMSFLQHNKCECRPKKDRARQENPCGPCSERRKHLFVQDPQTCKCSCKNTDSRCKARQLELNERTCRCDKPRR

For `Cc1ccc2c(c1)sc(-c1ccc(N(C)C)cc1)[n+]2C`, the “K D” value [1] was 52900 nM and the binding [2] was “no”.

CCGTCTTCCAGACAAGAGTGCAGGG (ssDNA) [anti-VEGF165 aptamer] was tested, and the Kd (VEGF165; B-DNA form by CD) was 0.287 nM.

In the case of AGGGACGGGACCGTCTTCCAGACAAGAGTGCAGGGAGGGACGGGA (structured_DNA) [G4-Apt], the Kd (VEGF165; largely parallel G-quadruplex by CD) is reported as 0.538 nM.
